Measurements published in patent publication US6670370B1 (priority 2001, dated 2003).
Structures can show the parent of a compound that is named as a salt. Where two headings read alike, the source gives them in different places.

Assays:
[1] = Tap density of milled dextromethorphan tannate powders; format: physicochemical; conditions: dried to moisture level (K.F.) of 5%, milled to particle size of about 100 mesh
[2] = background statement on known substance, cited from earlier work
[3] = Solubility in water (descriptive); conditions: physical properties stated in detailed description

Compound | Tap Density [1] [g/cc] | solubility in water [2] | other results
dextromethorphan tannate [D-M Tannate synthesized by IPA route (Example 5)] | 0.321 |  | 
COc1ccc2c(c1)[C@]13CCCC[C@@H]1[C@H](C2)N(C)CC3 [dextromethorphan free base, 3-methoxy-17-methyl-9α, 13α, 14α-morphinan] |  | insoluble | solubility in water [3]: insoluble
dextromethorphan tannate [Commercially available D-M Tannate] | 0.313 |  | 
dextromethorphan tannate [D-M Tannate of the invention] | 0.723 |  | 
O=C(OC[C@H]1O[C@@H](OC(=O)c2cc(O)c(O)c(OC(=O)c3cc(O)c(O)c(O)c3)c2)[C@H](OC(=O)c2cc(O)c(O)c(OC(=O)c3cc(O)c(O)c(O)c3)c2)[C@@H](OC(=O)c2cc(O)c(O)c(OC(=O)c3cc(O)c(O)c(O)c3)c2)[C@@H]1OC(=O)c1cc(O)c(O)c(OC(=O)c2cc(O)c(O)c(O)c2)c1)c1cc(O)c(O)c(OC(=O)c2cc(O)c(O)c(O)c2)c1 [tannic acid] |  | highly soluble | 
COc1ccc2c(c1)[C@]13CCCC[C@@H]1[C@H](C2)N(C)CC3 [hydrobromide monohydrate salt, dextromethorphan hydrobromide monohydrate] |  |  | solubility in water ([2]; hydrobromide monohydrate): soluble
